These results are taken from PubChem BioAssay (NCI).

Common to all, as to assay: NCI tumour cell line growth inhibition, 48 h
Test [1] deals with NCI/ADR-RES ovarian.
For test [2], the system named is HS 578T breast.
Test [3] relates to IGROV1 ovarian.
Test [4] has as its system ACHN renal.
The subject of test [5] is MCF7 breast.
The subject of test [6] is CCRF-CEM leukemia.
The subject of test [7] is A549 NSCLC.
Test [8] deals with SK-OV-3 ovarian.
Test [9] concerns OVCAR-4 ovarian.
Test [10] deals with HOP-92 NSCLC.

Where “and” joins values, the source holds several entries; their conditions need not be identical. Identical values can stand only once.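 Results reflect a 48-hour exposure of cells in 96-well plates to compound at five concentrations. GI50 is the concentration that inhibits growth by half. TGI: total growth inhibition.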

In the case of `O=C(Nc1ccc(Cl)c(Cl)c1)Nc1ccccc1O`, the GI50 in test [1] was 3.59 µM; in test [2], 6.69 µM; in test [3] it was 6.48 µM; in [4] it was 3.9 µM; in [5] it was 4.14 µM; in [6], 3.35 µM. The GI50 was 6.23 µM in test [7], 16 µM in test [8], 5.44 µM in test [9] and 6.46 µM in [10]. For the same molecule, the TGI amounted to 28.5 µM in test [1]; 37.5 µM in test [2]; 29.3 µM in test [3]; 51.5 µM in [4]; 21.3 µM in [5]; 68.7 µM in [6]. The TGI was 22.5 µM in test [7], 40.8 µM in test [8], over 100 µM in test [9] and 27.3 µM in [10].
Regarding `CCCCCCCCCCN1CCC(N2CCCCC2)CC1`, the GI50 in test [1] is 6.76 µM; in [2] it was 2.06 µM; in test [3], 1.66 µM; in [4] it was 4.31 µM; in [5], 1.54 µM; in [6] it was 2.08 µM. Also, the GI50 in test [7] is 3.74 µM; in [8], 2.77 µM; in test [9], 6.61 µM; in test [10], 0.763 µM. The TGI in test [1] was found to be 20.2 µM; in test [2], 6.25 µM; in test [3], 4.52 µM; in test [4] it was 13.7 µM; in test [5], 3.64 µM; in test [6], 9.48 µM. Besides, the TGI worked out at 12.1 µM in [7], 8.31 µM in [8], 20.7 µM in [9] and 8.5 µM in test [10].
Turning to `CCCCCCCCCCCCOC1C(C(CC(=O)NCCN2CCCC2)NS(=O)(=O)c2cc(Cl)cc(Cl)c2)OC2OC(C)(C)OC21` (stereo not given), the GI50 in test [1] was 2.04 µM; in [2] it was 2.23 µM; in test [3], 1.95 µM; in test [4] it was 1.9 µM; in test [5] it was 1.98 µM and 1.73 µM; in test [6], 0.00586 µM. Further, the GI50 in [7] is 2.5 µM; in test [8], 2.08 µM and 1.32 µM; in test [9], 2 µM and 1.7 µM; in [10] it was 1.49 µM. In addition, the TGI in test [1] is 4.08 µM; in test [2], 4.16 µM; in [3], 3.6 µM; in test [4], 3.37 µM; in test [5] it was 3.91 µM and 3.51 µM; in test [6], 0.0349 µM. In addition, the TGI in [7] was 6.41 µM; in test [8] it was 3.79 µM and 2.73 µM; in [9], 3.7 µM and 3.51 µM; in test [10], 3 µM.
With `CN1CCN(c2ccc(Nc3ncc4cc(C#N)c(=O)n(C5CCCC5)c4n3)cc2)CC1`, the GI50 in [1] was 2.94 µM; in test [2] it was 0.807 µM; in test [3], 0.605 µM; in test [4], 0.309 µM; in test [5], 0.346 µM; in [6], 0.597 µM. For the same molecule, the GI50 is 2.05 µM in test [7], 4.41 µM in test [8] and 3.08 µM in test [9]. The TGI in test [1] is over 33 µM; in test [2] it was 6.07 µM; in test [3] it was over 23.3 µM; in test [4], 13.5 µM; in test [5], over 100 µM; in test [6], over 20.9 µM. Besides, the TGI in test [7], in [8] and in [9] was over 100 µM each time.
Regarding `O=C(NO)c1ccc(CN(c2cnccn2)c2cnccn2)cc1`, the GI50 was 10.3 µM in test [1]; 23.3 µM in test [2]; 15.6 µM in test [3]; 12.9 µM in test [4]; 12.1 µM in [5]; 11.2 µM in test [6]. Further, the GI50 was 13.9 µM in test [7], 14.6 µM in test [8], 16.1 µM in [9] and 16.4 µM in test [10]. Further, the TGI is 37.4 µM in test [1]; 96.8 µM in [2]; 35.2 µM in [3]; 27.4 µM in test [4]; over 100 µM in [5]; over 100 µM in test [6]. The TGI in [7] came out at 36.5 µM; in test [8] it was 29.5 µM; in [9] it was 97.7 µM; in test [10], 35.1 µM.
For `CO/N=C(/C)c1cccc(Nc2cc(-c3ccccc3)nc3ccc(OC)cc23)c1`, the GI50 was 4.7 µM in [1]; 27.6 µM in test [2]; 26.2 µM in [3]; 14.1 µM in test [4]; 5.71 µM in test [5]; 23.1 µM in [7]. Further, the GI50 in [8] is 29.2 µM; in test [9], 20.2 µM; in [10], 2.55 µM. The TGI is 24 µM in test [1]; 64.3 µM in test [2]; over 100 µM in [3]; 31.5 µM in test [4]; 56.5 µM in [5]; 53.9 µM in test [7]. Also, the TGI in [8] stood at 72 µM; in test [9], 66.6 µM; in test [10], 8.55 µM.
Take `C=CCN1CC2CON(C(=O)C(OC)(c3ccccc3)C(F)(F)F)C2C1C(C)C` (stereo not given): the GI50 in [1] is 34.2 µg/mL; in test [2] it was 37.4 µg/mL; in test [3], 56.9 µg/mL; in test [4], 38.1 µg/mL; in test [5], 26.2 µg/mL; in test [6] it was 15.2 µg/mL. The GI50 in [7] is 34.6 µg/mL; in test [8], 40.2 µg/mL; in [9], 67.1 µg/mL. Also, the TGI in test [5] was 78.7 µg/mL; in test [6] it was 62 µg/mL.
Take `COc1ccc2c3c(Nc4ccc(/C(C)=N/O)cc4)[nH]c4ccccc4c-3c(N=O)c2c1`: the GI50 in [1] is 5.78 µM; in test [2], 7.04 µM; in test [3], 15 µM; in test [4], 0.568 µM; in test [5] it was 0.843 µM; in [6], 1.09 µM. Further, the GI50 in test [7] is 1.45 µM; in [9], 28.4 µM; in test [10], 13.1 µM. The TGI in [1] is 20.2 µM; in test [2], 37 µM; in [3] it was 29.2 µM; in [4], 2.54 µM; in test [5], over 100 µM; in [6], 2.92 µM. Also, the TGI in test [7] was 6.08 µM; in test [9], 68.2 µM; in [10] it was 36 µM.
Take `CCN(CC)c1cc2oc3cc(N)cc(=N)c-3nc2cc1C`: the GI50 in test [1] is 2.29 µM; in [2], 2.18 µM; in test [3] it was 3.03 µM; in test [4], 1.69 µM; in test [5] it was 1.86 µM; in [7] it was 3.63 µM. For the same molecule, the GI50 in test [8] is 22.2 µM; in test [10], 20.2 µM. Also, the TGI in test [1] is over 100 µM; in test [2], 7.25 µM; in test [3] it was 14.3 µM; in test [4], over 100 µM; in [5], 4.49 µM; in test [7] it was 18.3 µM. In addition, the TGI in test [8] was over 100 µM; in test [10] it was 79.7 µM.
Take `CC1=CC(=O)C(C(O)(C(F)(F)F)C(F)(F)F)C(C)(C)C1` (stereo not given): the TGI in test [1], in test [2], in test [3], in test [4], in test [5] and in [6] was over 10 µM each time. For the same molecule, the TGI in test [7], in [8] and in test [9] was over 10 µM in each case.
For the molecule `CCC(=O)Nc1ccc(N=NN(C)C)cc1`, the TGI in test [1], in test [2], in test [4], in [5], in test [7] and in test [8] was over 100 µM in each case. For the same molecule, the TGI is over 100 µM in [9] and 90.2 µM in test [10].
Take `COC(=O)CCC1=C(CC(=O)OC)C(C)=N/C1=C\c1[nH]c(-c2ccc[nH]2)cc1OC`: the GI50 in test [1] was 4.06 µM; in test [2], 4.09 µM; in [3] it was 4.21 µM; in [4] it was 4.26 µM; in test [5] it was 2.38 µM; in test [6] it was 1.68 µM. Besides, the GI50 was 3.34 µM in test [7], 13.3 µM in test [8] and 1.83 µM in test [10]. The TGI in [1] was 16.9 µM; in test [2], 18.7 µM; in test [3] it was 28.6 µM; in test [4] it was 15.6 µM; in [5], 13.5 µM; in [6], 29.8 µM. In addition, the TGI in test [7] is 13 µM; in test [8], 28.4 µM; in test [10], 5.9 µM.
On to `C=C1CC[C@@H](C(C)C)C[C@@H]2[C@H]([C@H](O)C[C@]2(C)O)[C@@]2(C)CC[C@@H]1O2`, for which the GI50 in test [1] was 16.7 µM; in [2] it was 31.5 µM; in test [3] it was 17.2 µM; in test [4] it was 16.5 µM; in test [5] it was 16.2 µM; in test [7] it was 17 µM. Also, the GI50 in test [8] is 20.2 µM; in [9], 14.8 µM; in test [10] it was 6.84 µM. For the same molecule, the TGI in test [1] amounted to 33.2 µM; in test [2] it was 82.7 µM; in [3] it was 33.4 µM; in test [4] it was 30 µM; in [5] it was 29.7 µM; in test [7], 32.7 µM. Also, the TGI worked out at 38 µM in test [8], 28 µM in test [9] and 20.7 µM in test [10].
With `Cc1ccc(Nc2nnc(-c3ccc4c(c3)OCO4)o2)c(C)c1`, the TGI in test [1], in test [2], in [3], in test [4], in test [5] and in [7] was over 100 µM throughout. In addition, the TGI in test [8], in test [9] and in test [10] was over 100 µM throughout.
As to `O=C1CSC(c2ccc(-c3nc4ccccc4s3)cc2)=N1`, the GI50 in test [1] is 50.5 µM; in [2], 20.2 µM; in [3], 50.5 µM; in [4], 55.6 µM; in test [7], 43.9 µM; in test [8], 53.2 µM. In addition, the values for the GI50 in test [9] and in [10] were 41.1 µM and over 100 µM, respectively. Also, the TGI was over 100 µM in [1]; 59.7 µM in test [2]; over 100 µM in test [3]; over 100 µM in [4]; over 100 µM in [7]; over 100 µM in test [8]. Further, the TGI in test [9] and in test [10] was over 100 µM in each case.
On to `Cc1ccc(S(=O)(=O)NC(=O)NC2=NC(C)(C)N(c3ccc(Cl)c(Cl)c3)C(N)=N2)cc1`, for which the TGI in [1], in [2], in [3], in test [4], in [5] and in [6] was over 100 µM in each case. For the same molecule, the TGI in test [7], in test [8] and in test [9] was over 100 µM each time.
In the case of `CC(O)CC(O)(C(F)(F)F)C(F)(F)F` (stereo not given), the TGI in test [1], in [2], in test [3], in test [4], in [5] and in test [6] was over 10 µM each time. Further, the TGI in test [7], in test [8] and in test [9] was over 10 µM in each case.
Turning to `CC1=C(C(=O)Nc2ccccc2)C(c2ccc(C3C(C(=O)Nc4ccccc4)=C(C)NC(C)=C3C(=O)Nc3ccccc3)cc2)C(C(=O)Nc2ccccc2)=C(C)N1`, the TGI is 16.2 µM in test [2]; 6.94 µM in test [3]; 4.2 µM in test [4]; 14.7 µM in [5]; 12 µM in test [6]; 21.8 µM in [7]. The TGI in test [8] was 26.2 µM; in test [9], 16.1 µM; in test [10], 9.78 µM.
For the molecule `Nc1ccc2[nH]cc(CCC(=O)O)c2c1`, the TGI in test [1] is over 100 µM; in test [2], over 100 µM; in test [3], over 100 µM; in [4], over 100 µM; in test [5], over 100 µM; in [6], 32.9 µM. Further, the TGI in test [7], in test [8] and in test [9] was over 100 µM in each case.
